A short description of data set [1]: 30% (v/v) hydrogen peroxide (H2O2). Conditions: 37 °C for 24 h and 80 °C for 12 h, up to 24 h.
A further data set in a line: HCl (1 M). Conditions: 80 °C for 12 h and 37°C for 24 h, up to 96 h.
Data set [2] can be described thus: 1 M NaOH (base hydrolysis). Conditions: 37 °C (24 h) and 80 °C (12 h), up to 96 h (time course, Figure 2D); 24 h at 37 °C; 12 h at 80 °C.
The nature of data set [3]: 1 M HCl (acid hydrolysis). Conditions: 37 °C (24 h) and 80 °C (12 h), up to 96 h (time course, Figure 2C); 24 h at 37 °C; 12 h at 80 °C.

Entries after “also recorded” stand apart in the source; their conditions may differ.

With “HELM PEPTIDE1{[Cc1cc(O)cc(C)c1C[C@H](N)C(=O)[*:2]].[dK].F.F.K.K.P.F.I.L}$$$$V2.0 (N-terminus assumed; SMILES CC[C@H](C)[C@H](NC(=O)[C@H](Cc1ccccc1)NC(=O)[C@@H]1CCCN1C(=O)[C@H](CCCCN)NC(=O)[C@H](CCCCN)NC(=O)[C@H](Cc1ccccc1)NC(=O)[C@H](Cc1ccccc1)NC(=O)[C@@H](CCCCN)NC(=O)[C@@H](N)Cc1c(C)cc(O)cc1C)C(=O)N[C@@H](CC(C)C)C(=O)O)”, the results for the cleaved bond result (in data set [1]; in “HCl (1 M)”) were “Dmt1-D-Lys2” and “Phe-Ile9; also recorded: D-Lys2-Phe”, respectively.

With “HELM PEPTIDE1{[Cc1cc(O)cc(C)c1C[C@H](N)C(=O)[*:2]].[dK].F.F.K.K.P.F.[CC(C)(C)[C@H](N[*:1])C(=O)[*:2]].L}$$$$V2.0 (N-terminus assumed; SMILES Cc1cc(O)cc(C)c1C[C@H](N)C(=O)N[C@H](CCCCN)C(=O)N[C@@H](Cc1ccccc1)C(=O)N[C@@H](Cc1ccccc1)C(=O)N[C@@H](CCCCN)C(=O)N[C@@H](CCCCN)C(=O)N1CCC[C@H]1C(=O)N[C@@H](Cc1ccccc1)C(=O)N[C@H](C(=O)N[C@@H](CC(C)C)C(=O)O)C(C)(C)C)”, the results for the fragment found result in data set [2] and in data set [3] were “compound H—Phe-Lys-Lys-Pro-Phe-Tle-Leu; also recorded: compound K—Pro-Phe-Tle; also recorded: compound J (Pro-Phe-Tle-Leu)” and “compound H—Phe-Lys-Lys-Pro-Phe-Tle-Leu; also recorded: compound K—Pro-Phe-Tle”, respectively.

Source of the values: paper PMC9500858 (International Journal of Molecular Sciences, 2022).
